pKi: −log10 of the molar value.
Experiments:
Format in all cases: biochemical
ENPP1 [1] = target: T1, ENPP1 (Homo sapiens, UniProt P22413); test: ENPP1 enzyme assay with AMP-pNP substrate (hydrolysis of ATP analog); settings: AMP-pNP substrate (ATP analog); Ki from IC50 by Cheng-Prusoff; read-out: ENPP1 Inhibition _AMP-pNP: Ki
T1 sequence (P22413 1-925): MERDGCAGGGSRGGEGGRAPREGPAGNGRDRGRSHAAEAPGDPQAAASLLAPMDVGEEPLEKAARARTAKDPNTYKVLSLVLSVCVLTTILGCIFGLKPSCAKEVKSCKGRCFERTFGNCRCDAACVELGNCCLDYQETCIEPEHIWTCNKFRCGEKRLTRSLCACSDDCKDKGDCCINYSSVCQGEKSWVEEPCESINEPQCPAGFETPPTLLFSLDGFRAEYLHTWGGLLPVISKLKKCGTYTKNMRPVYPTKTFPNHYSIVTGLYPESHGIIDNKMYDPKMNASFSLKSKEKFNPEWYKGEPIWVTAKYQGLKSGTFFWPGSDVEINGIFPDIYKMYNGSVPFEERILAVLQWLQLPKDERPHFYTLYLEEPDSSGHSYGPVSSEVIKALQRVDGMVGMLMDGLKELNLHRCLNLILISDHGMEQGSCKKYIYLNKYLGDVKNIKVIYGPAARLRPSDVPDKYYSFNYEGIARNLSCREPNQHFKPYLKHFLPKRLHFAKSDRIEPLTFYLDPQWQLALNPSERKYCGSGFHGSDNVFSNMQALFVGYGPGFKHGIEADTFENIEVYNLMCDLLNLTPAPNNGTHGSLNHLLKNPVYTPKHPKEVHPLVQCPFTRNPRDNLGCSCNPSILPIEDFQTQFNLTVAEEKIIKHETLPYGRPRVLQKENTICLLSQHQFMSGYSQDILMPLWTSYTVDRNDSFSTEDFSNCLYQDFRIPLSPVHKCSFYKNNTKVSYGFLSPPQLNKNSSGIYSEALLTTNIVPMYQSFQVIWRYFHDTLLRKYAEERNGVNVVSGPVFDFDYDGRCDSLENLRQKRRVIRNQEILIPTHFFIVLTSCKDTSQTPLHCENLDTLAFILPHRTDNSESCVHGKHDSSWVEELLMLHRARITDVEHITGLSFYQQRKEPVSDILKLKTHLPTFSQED
In short: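 Human recombinant ENPP1 (60 ng/well) with 300 µM AMP-pNP in 50 mM Tris-HCl pH 8.5, 250 mM NaCl, 0.5 mM CaCl2, 1 µM ZnCl2, 0.1% DMSO, 20 min at 37 °C.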

ENPP1 [2] = target: T1, ENPP1; test: Indirect quantitation of 2',3'-cGAMP hydrolysis (AMP-Glo Assay kit); settings: cGAMP substrate; Ki from IC50 by Cheng-Prusoff; read-out: ENPP1 Inhibition -cGAMP: Ki
ENPP1 [3] = target: T1, ENPP1; test: Substrate selectivity ratio, inhibition of cGAMP hydrolysis versus ATP hydrolysis; settings: ratio Ki AMP-pNP / Ki cGAMP
Protocol: The selectivity ratios for inhibition of cGAMP hydrolysis versus ATP hydrolysis were then calculated as follows: […]

Compound: COc1ccc2c(Oc3ccc(S(=N)(=O)O)cc3F)ccnc2c1 [Example 382, 3-fluoro-4-((7-methoxyquinolin-4-yl)oxy)benzene sulfonamide]
- pKi (ENPP1 [1]): < 6.00
- pKi (ENPP1 [2]): > 7.00
- Substrate Selectivity: Ki_AMP-pNP/Ki_cGAMP (ENPP1 [3]): >142

Compound: COc1cc2nccc(Oc3c(F)cc(NS(N)(=O)=O)cc3F)c2cc1OC [Example 197, N-(4-((6,7-dimethoxyquinolin-4-yl)oxy)-3,5-difluorophenyl)sulfamide]
- pKi (ENPP1 [1]): < 6.00
- pKi (ENPP1 [2]): > 7.00
- Substrate Selectivity: Ki_AMP-pNP/Ki_cGAMP (ENPP1 [3]): >49.7

Compound: COc1cc2nccc(NCc3ccc(NS(N)(=O)=O)cc3)c2cc1OC [Example 180, N-(4-(((6,7-dimethoxyquinolin-4-yl)amino)methyl)phenyl)sulfamide]
- pKi (ENPP1 [1]): < 6.00
- pKi (ENPP1 [2]): 6.00 to 7.00
- Substrate Selectivity: Ki_AMP-pNP/Ki_cGAMP (ENPP1 [3]): > 11.9

Compound: COc1ccc2c(-c3ccc(CN(C4CC4)S(N)(=O)=O)cc3)ccnc2c1 [Example 289, N-cyclopropyl-N-(4-(7-methoxyquinolin-4-yl)benzyl)sulfamide]
- pKi (ENPP1 [1]): < 6.00
- pKi (ENPP1 [2]): > 7.00
- Substrate Selectivity: Ki_AMP-pNP/Ki_cGAMP (ENPP1 [3]): > 626

Compound: COc1cc2nccc(Oc3cc(F)c(NS(N)(=O)=O)cc3F)c2cc1OC [Example 258, N-(4-((6,7-dimethoxyquinolin-4-yl)oxy)-2,5-difluorophenyl)sulfamide]
- pKi (ENPP1 [1]): < 6.00
- pKi (ENPP1 [2]): > 7.00
- Substrate Selectivity: Ki_AMP-pNP/Ki_cGAMP (ENPP1 [3]): >48.1

Compound: COc1ccc2c(-c3ccc(C(C)(C)NS(N)(=O)=O)cc3)ccnc2c1 [Example 357, N-(2-(4-(7-methoxyquinolin-4-yl)phenyl)propan-2-yl)sulfamide]
- pKi (ENPP1 [1]): 6.00 to 7.00
- pKi (ENPP1 [2]): > 7.00
- Substrate Selectivity: Ki_AMP-pNP/Ki_cGAMP (ENPP1 [3]): >18

Compound: COc1ccc2c(Oc3ccc(NS(N)(=O)=O)cc3)c(C)cnc2c1 [Example 300, N-(4-((7-methoxy-3-methylquinolin-4-yl)oxy)phenyl)sulfamide]
- pKi (ENPP1 [1]): 6.00 to 7.00
- pKi (ENPP1 [2]): > 7.00
- Substrate Selectivity: Ki_AMP-pNP/Ki_cGAMP (ENPP1 [3]): 13.7

Compound: COc1ccc2c(-c3ccc(CNS(N)(=O)=O)c(F)c3)ccnc2c1 [Example 62, N-(2-fluoro-4-(7-methoxyquinolin-4-yl)benzyl)sulfamide]
- pKi (ENPP1 [1]): > 7.00
- pKi (ENPP1 [2]): > 7.00
- Substrate Selectivity: Ki_AMP-pNP/Ki_cGAMP (ENPP1 [3]): 16.1

Compound: NS(=O)(=O)NCc1ccc(-c2ccnc3cc(F)ccc23)cc1 [Example 296, N-(4-(7-fluoroquinolin-4-yl)benzyl)sulfamide]
- pKi (ENPP1 [1]): < 6.00
- pKi (ENPP1 [2]): > 7.00
- Substrate Selectivity: Ki_AMP-pNP/Ki_cGAMP (ENPP1 [3]): > 40.3

Compound: COc1cc2ncnc(N3CCC(CCS(N)(=O)=O)CC3)c2cc1OC [Example 164, 2-(1-(6,7-dimethoxyquinazolin-4-yl)piperidin-4-yl)ethane-1-sulfonamide]
- pKi (ENPP1 [1]): > 7.00
- pKi (ENPP1 [2]): > 7.00
- Substrate Selectivity: Ki_AMP-pNP/Ki_cGAMP (ENPP1 [3]): 14.8

Compound: COc1cc2nccc(-c3ccc(CNS(N)(=O)=O)nc3)c2cc1OC [Example 314, N-((5-(6,7-dimethoxyquinolin-4-yl)pyridin-2-yl)methyl)sulfamide]
- pKi (ENPP1 [1]): < 6.00
- pKi (ENPP1 [2]): > 7.00
- Substrate Selectivity: Ki_AMP-pNP/Ki_cGAMP (ENPP1 [3]): 35.7

Compound: COc1ccc2ncnc(NC(C)c3ccc(NS(N)(=O)=O)cc3)c2c1 (stereo not drawn) [Example 299, N-(4-(1-((6-methoxyquinazolin-4-yl)amino)ethyl)phenyl)sulfamide]
- pKi (ENPP1 [1]): < 6.00
- pKi (ENPP1 [2]): > 7.00
- Substrate Selectivity: Ki_AMP-pNP/Ki_cGAMP (ENPP1 [3]): >45.9

Compound: COc1cc2nccc(N3CCC(CCNS(=O)(=O)NC(C)=O)CC3)c2cc1OC [Example 203, N-(N-(2-(1-(6,7-dimethoxyquinolin-4-yl)piperidin-4-yl)ethyl)sulfamoyl)acetamide]
- pKi (ENPP1 [1]): < 6.00
- pKi (ENPP1 [2]): 6.00 to 7.00
- Substrate Selectivity: Ki_AMP-pNP/Ki_cGAMP (ENPP1 [3]): > 33.7

Compound: COc1cc2ncnc(N3CCC(CCNS(=O)(=O)NC(C)=O)CC3)c2cc1OC [Example 200, N-(N-(2-(1-(6,7-dimethoxyquinazolin-4-yl)piperidin-4-yl)ethyl)sulfamoyl)acetamide]
- pKi (ENPP1 [1]): < 6.00
- pKi (ENPP1 [2]): 6.00 to 7.00
- Substrate Selectivity: Ki_AMP-pNP/Ki_cGAMP (ENPP1 [3]): >64.2

Compound: COc1cc2ncc(F)c(-c3ccc4c(c3)CN(S(N)(=O)=O)CC4)c2cc1OC [Example 229, 7-(3-fluoro-6,7-dimethoxyquinolin-4-yl)-3,4-dihydroisoquinoline-2(1H)-sulfonamide]
- pKi (ENPP1 [1]): > 7.00
- pKi (ENPP1 [2]): > 7.00
- Substrate Selectivity: Ki_AMP-pNP/Ki_cGAMP (ENPP1 [3]): 27.2

Compound: NS(=O)(=O)N1CCc2ccc(-c3ncnc4ccccc34)cc2C1 [Example 150, 7-(quinazolin-4-yl)-3,4-dihydroisoquinoline-2(1H)-sulfonamide]
- pKi (ENPP1 [1]): < 6.00
- pKi (ENPP1 [2]): 6.00 to 7.00
- Substrate Selectivity: Ki_AMP-pNP/Ki_cGAMP (ENPP1 [3]): >158

Compound: COc1ccc2c(Oc3ccc(N)cc3)ccnc2c1 [Example 342, 4-((7-methoxyquinolin-4-yl)oxy)aniline]
- pKi (ENPP1 [1]): < 6.00
- pKi (ENPP1 [2]): 6.00 to 7.00
- Substrate Selectivity: Ki_AMP-pNP/Ki_cGAMP (ENPP1 [3]): >64.9

Compound: COc1cc2nccc(-c3ccc(CNS(N)(=O)=O)cc3)c2cc1OC [Example 225, N-(4-(6,7-dimethoxyquinolin-4-yl)benzyl)sulfamide]
- pKi (ENPP1 [1]): > 7.00
- pKi (ENPP1 [2]): > 7.00
- Substrate Selectivity: Ki_AMP-pNP/Ki_cGAMP (ENPP1 [3]): 48.4

Compound: COc1cc2c(N3CCC(CCNS(N)(=O)=O)CC3)c(C#N)cnc2cn1 [Example 216, N-(2-(1-(3-cyano-6-methoxy-1,7-naphthyridin-4-yl)piperidin-4-yl)ethyl)sulfamide]
- pKi (ENPP1 [1]): < 6.00
- pKi (ENPP1 [2]): > 7.00
- Substrate Selectivity: Ki_AMP-pNP/Ki_cGAMP (ENPP1 [3]): > 72.3

Compound: COc1ccc2c(NCc3ccc(NS(N)(=O)=O)cc3)ccnc2c1 [Example 267, N-(4-(((7-methoxyquinolin-4-yl)amino)methyl)phenyl)sulfamide]
- pKi (ENPP1 [1]): 6.00 to 7.00
- pKi (ENPP1 [2]): > 7.00
- Substrate Selectivity: Ki_AMP-pNP/Ki_cGAMP (ENPP1 [3]): 22.5

Compound: COc1cc2c(N3CCC4(CC3)CCN(S(N)(=O)=O)C4)c(C#N)cnc2cn1 [Example 256, 8-(3-cyano-6-methoxy-1,7-naphthyridin-4-yl)-2,8-diazaspiro [4.5] decane-2-sulfonamide]
- pKi (ENPP1 [1]): < 6.00
- pKi (ENPP1 [2]): > 7.00
- Substrate Selectivity: Ki_AMP-pNP/Ki_cGAMP (ENPP1 [3]): >118

Compound: COc1ccc2c(-c3ccc4c(c3)CN(S(N)(=O)=O)CC4)ccnc2c1 [Example 305, 7-(7-methoxyquinolin-4-yl)-3,4-dihydroisoquinoline-2(1H)-sulfonamide]
- pKi (ENPP1 [1]): 6.00 to 7.00
- pKi (ENPP1 [2]): > 7.00
- Substrate Selectivity: Ki_AMP-pNP/Ki_cGAMP (ENPP1 [3]): >13.0

Compound: COc1ccc2c(-c3ccc(NS(N)(=O)=O)cc3)ccnc2c1 [Example 396, N-(4-(7-methoxyquinolin-4-yl)phenyl)sulfamide]
- pKi (ENPP1 [1]): < 6.00
- pKi (ENPP1 [2]): 6.00 to 7.00
- Substrate Selectivity: Ki_AMP-pNP/Ki_cGAMP (ENPP1 [3]): >20

Compound: COc1ccc2c(-c3ccc(CNS(N)(=O)=O)nc3)ccnc2c1 [Example 354, N-((5-(7-methoxyquinolin-4-yl)pyridin-2-yl)methyl)sulfamide]
- pKi (ENPP1 [1]): 6.00 to 7.00
- pKi (ENPP1 [2]): > 7.00
- Substrate Selectivity: Ki_AMP-pNP/Ki_cGAMP (ENPP1 [3]): 54

Compound: NS(=O)(=O)Nc1ccc(Nc2ncnc3ncccc23)cc1 [Example 242, N-(4-(pyrido[2,3-d]pyrimidin-4-ylamino)phenyl)sulfamide]
- pKi (ENPP1 [1]): < 6.00
- pKi (ENPP1 [2]): 6.00 to 7.00
- Substrate Selectivity: Ki_AMP-pNP/Ki_cGAMP (ENPP1 [3]): >82.4

Compound: COc1ccc2c(-c3ccc(CNS(N)(=O)=O)cc3)c(F)cnc2c1 [Example 381, N-(4-(7-methoxy-3-Fluoro-quinolin-4-yl)benzyl) Sulfamide]
- pKi (ENPP1 [1]): 6.00 to 7.00
- pKi (ENPP1 [2]): > 7.00
- Substrate Selectivity: Ki_AMP-pNP/Ki_cGAMP (ENPP1 [3]): >38

Compound: COc1cc2ncnc(NC(C)c3ccc(NS(N)(=O)=O)cc3)c2cc1OC (stereo in doubt) [Example 253, (R)-N-(4-(1-((6,7-dimethoxyquinazolin-4-yl)amino)ethyl)phenyl)sulfamide]
- pKi (ENPP1 [1]): 6.00 to 7.00
- pKi (ENPP1 [2]): > 7.00
- Substrate Selectivity: Ki_AMP-pNP/Ki_cGAMP (ENPP1 [3]): 79.4

Compound: COc1ccc2c(Oc3cnc(NS(N)(=O)=O)nc3)ccnc2c1 [Example 224, N-(5-((7-methoxyquinolin-4-yl)oxy)pyrimidin-2-yl)sulfamide]
- pKi (ENPP1 [1]): 6.00 to 7.00
- pKi (ENPP1 [2]): 6.00 to 7.00
- Substrate Selectivity: Ki_AMP-pNP/Ki_cGAMP (ENPP1 [3]): > 2.40

Compound: COc1cc2nccc(N3CCC(CN(C4CC4)S(N)(=O)=O)CC3)c2cc1OC [Example 212, N-cyclopropyl-N-((1-(6,7-dimethoxyquinolin-4-yl)piperidin-4-yl)methyl)sulfamide]
- pKi (ENPP1 [1]): < 6.00
- pKi (ENPP1 [2]): > 7.00
- Substrate Selectivity: Ki_AMP-pNP/Ki_cGAMP (ENPP1 [3]): > 46.1
